Experimental data: BigSolDB 2.1

CC1(C)O[C@@H]2[C@@H](CO[C@@]3(COS(N)(=O)=O)OC(C)(C)O[C@@H]23)O1
solubility (mole fraction)
Conditions | 278.15 K | 283.15 K | 288.15 K | 293.15 K | 298.15 K | 303.15 K | 308.15 K | 313.15 K | 318.15 K | 323.15 K
in 2-butoxyethanol | 0.0541 | 0.0602 | 0.0676 | 0.0756 | 0.0849 | 0.0986 | 0.111 | 0.124 | 0.14 | 0.157
in 2-ethoxyethanol | 0.11 | 0.118 | 0.126 | 0.137 | 0.149 | 0.162 | 0.173 | 0.191 | 0.209 | 0.229
in 2-methoxyethanol | 0.149 | 0.156 | 0.165 | 0.176 | 0.187 | 0.198 | 0.212 | 0.228 | 0.245 | 0.263
in 2-propoxyethanol | 0.0726 | 0.0803 | 0.089 | 0.0981 | 0.109 | 0.121 | 0.134 | 0.15 | 0.167 | 0.187
in ethanol | 0.0169 | 0.0202 | 0.0252 | 0.0315 | 0.039 | 0.0478 | 0.0628 | 0.079 | 0.102 | 0.129
in isobutanol | 0.00375 | 0.004 | 0.00525 | 0.00684 | 0.00911 | 0.0121 | 0.0166 | 0.0225 | 0.0314 | 0.0441
in isopentanol | 0.00308 | 0.00401 | 0.0052 | 0.00684 | 0.00905 | 0.0119 | 0.0147 | 0.0197 | 0.0261 | 0.0353
in isopropanol | 0.00638 | 0.00814 | 0.0106 | 0.014 | 0.0186 | 0.0247 | 0.0299 | 0.0408 | 0.0594 | 0.0818
in methanol | 0.0401 | 0.0476 | 0.0569 | 0.0683 | 0.081 | 0.0951 | 0.112 | 0.131 | 0.148 | 0.174
in n-butanol | 0.00495 | 0.00629 | 0.00804 | 0.0103 | 0.0131 | 0.0172 | 0.0231 | 0.0298 | 0.0397 | 0.0538
in n-heptanol | 0.00256 | 0.00327 | 0.00425 | 0.0054 | 0.00686 | 0.00877 | 0.0116 | 0.015 | 0.0196 | 0.0256
in n-hexanol | 0.0029 | 0.00363 | 0.00496 | 0.00628 | 0.00807 | 0.0104 | 0.0138 | 0.018 | 0.0236 | 0.0312
in n-pentanol | 0.00373 | 0.00472 | 0.00601 | 0.00747 | 0.00969 | 0.0126 | 0.0157 | 0.0207 | 0.0272 | 0.0367
in n-propanol | 0.00715 | 0.00923 | 0.0116 | 0.0148 | 0.0187 | 0.0252 | 0.0333 | 0.0439 | 0.0591 | 0.0794
